Laboratory results: patent USRE48335E1, “Polymyxin derivatives as antimicrobial compounds” (priority 2014, dated 2020)
Converted amounts (≈) assume the structure as drawn. Where two headings read alike, the source gives them in different places. Positions of bridges follow the written chain, without caps; N, C: chain ends. Non-standard residues stand in square brackets, D forms with d. Residues, ends and D or L forms follow the SMILES beside them. *: point of attachment. Benzoyl(3-CF3) = O=C(c1cccc(C(F)(F)F)c1)*; Hydrocinnamoyl = O=C(CCc1ccccc1)*; X38 = O=C(c1ccc(Cl)cc1C(F)(F)F)*; X37 = O=C(c1ccc(C(F)(F)F)cc1F)*; X28 = O=C(c1ccc(F)cc1Cl)*; X3 = O=C(c1ccc(Cl)cc1Cl)*; Orn = NCCC[C@H](N)C(=O)O; Dab = NCC[C@H](N)C(=O)O; Abu = CC[C@H](N)C(=O)O; Dap = NC[C@H](N)C(=O)O

Columns and labels:
[1] = test system: Acinetobacter baumannii
Method in brief: (§1)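 Using polymyxin B sulphate as comparator control, the trifluoroacetate-salt lipopeptides were assayed in CAMHB by broth microdilution to CLSI M100-S18, and MICs recorded.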

[2] = test system: Enterobacter cloacae
Method in brief: as §1

[3] = test system: Pseudomonas aeruginosa
Method in brief: as §1

[4] = Acinetobacter baumannii ATCC 17978, broth microdilution in CAMHB, TFA salt
[5] = Acinetobacter baumannii ATCC 19606, broth microdilution in CAMHB, TFA salt
[6] = Acinetobacter baumannii FADDI-AB034, broth microdilution in CAMHB, TFA salt
[7] = Enterobacter cloacae FADDI-EC001, broth microdilution in CAMHB, TFA salt
[8] = Enterobacter cloacae FADDI-EC003, broth microdilution in CAMHB, TFA salt
[9] = Enterobacter cloacae FADDI-EC006, broth microdilution in CAMHB, TFA salt
[10] = Pseudomonas aeruginosa ATCC 27853, broth microdilution in CAMHB, TFA salt
[11] = Pseudomonas aeruginosa FADDI-PA022, broth microdilution in CAMHB, TFA salt
[12] = Pseudomonas aeruginosa FADDI-PA025, broth microdilution in CAMHB, TFA salt

SMILES	Minimum inhibitory concentration, Ab A ATCC 17978 [1] [µg/mL]	Minimum inhibitory concentration, Ab ATCC 19606 [1] [µg/mL]	Minimum inhibitory concentration, Ab FADDI-AB034 [1] [µg/mL]	Minimum inhibitory concentration, Ec FADDI-EC001 [2] [µg/mL]	Minimum inhibitory concentration, Ec FADDI-EC003 [2] [µg/mL]	Minimum inhibitory concentration, Ec FADDI-EC006 [2] [µg/mL]	Minimum inhibitory concentration, Pa ATCC 27853 [3] [µg/mL]	Minimum inhibitory concentration, Pa FADDI-PA022 [3] [µg/mL]	Minimum inhibitory concentration, Pa FADDI-PA025 [3] [µg/mL]	Minimum inhibitory concentration (MIC), Ab ATCC 17978 [1] [µg/mL]	Minimum inhibitory concentration (MIC), Ab ATCC 19606 [1] [µg/mL]	Minimum inhibitory concentration (MIC), Ab FADDI-AB034 [1] [µg/mL]	Minimum inhibitory concentration (MIC), Ec FADDI-EC001 [2] [µg/mL]	Minimum inhibitory concentration (MIC), Ec FADDI-EC003 [2] [µg/mL]	Minimum inhibitory concentration (MIC), Ec FADDI-EC006 [2] [µg/mL]	Minimum inhibitory concentration (MIC), Pa ATCC 27853 [3] [µg/mL]	Minimum inhibitory concentration (MIC), Pa FADDI-PA022 [3] [µg/mL]	Minimum inhibitory concentration (MIC), Pa FADDI-PA025 [3] [µg/mL]	Minimum inhibitory concentration (MIC), Ab ATCC 17978 [1, 4] [µg/mL]	Minimum inhibitory concentration (MIC), Ab ATCC 19606 [1, 5] [µg/mL]	also measured
CC[C@@H]1NC(=O)[C@@H](CC(C)C)NC(=O)[C@H](CCN)NC(=O)[C@@H](NC(=O)[C@H](CN)NC(=O)[C@@H](NC(=O)[C@H](CCN)NC(=O)c2ccc(F)cc2Cl)[C@@H](C)O)CCNC(=O)[C@H]([C@@H](C)O)NC(=O)[C@H](CCN)NC(=O)[C@H](CCN)NC1=O [Compound 135] (X28-[Dab]T[Dap][Dab][Dab][dL][Abu][Dab][Dab]T; lactam 4-C)	1 (≈ 0.874 µM)	4 (≈ 3.5 µM)	1 (≈ 0.874 µM)	<0.125	<0.125	<0.125	0.5 (≈ 0.437 µM)	1 (≈ 0.874 µM)	2 (≈ 1.75 µM)	–	–	–	–	–	–	–	–	–	–	–	–
CC[C@@H]1NC(=O)[C@@H](CC(C)C)NC(=O)[C@H](CCN)NC(=O)[C@@H](NC(=O)[C@H](CN)NC(=O)[C@@H](NC(=O)[C@H](CCN)NC(=O)c2ccc(Cl)cc2C(F)(F)F)[C@@H](C)O)CCNC(=O)[C@H]([C@@H](C)O)NC(=O)[C@H](CCN)NC(=O)[C@H](CCN)NC1=O [Compound 136] (X38-[Dab]T[Dap][Dab][Dab][dL][Abu][Dab][Dab]T; lactam 4-C)	0.5 (≈ 0.419 µM)	0.5 (≈ 0.419 µM)	0.25 (≈ 0.209 µM)	<0.125	<0.125	0.25 (≈ 0.209 µM)	0.5 (≈ 0.419 µM)	2 (≈ 1.68 µM)	1 (≈ 0.838 µM)	–	–	–	–	–	–	–	–	–	–	–	–
CC[C@@H]1NC(=O)[C@@H](CC(C)C)NC(=O)[C@H](CCN)NC(=O)[C@@H](NC(=O)[C@H](CN)NC(=O)[C@@H](NC(=O)[C@H](CCN)NC(=O)c2ccc(C(F)(F)F)cc2F)[C@@H](C)O)CCNC(=O)[C@H]([C@@H](C)O)NC(=O)[C@H](CCN)NC(=O)[C@H](CCN)NC1=O [Compound 137] (X37-[Dab]T[Dap][Dab][Dab][dL][Abu][Dab][Dab]T; lactam 4-C)	–	–	–	–	–	–	–	–	–	0.25 (≈ 0.212 µM)	0.5 (≈ 0.425 µM)	0.25 (≈ 0.212 µM)	<0.125	<0.125	<0.125	0.5 (≈ 0.425 µM)	1 (≈ 0.849 µM)	4 (≈ 3.4 µM)	–	–	–
CC[C@@H]1NC(=O)[C@@H](CC(C)C)NC(=O)[C@H](CCN)NC(=O)[C@@H](NC(=O)[C@H](CN)NC(=O)[C@@H](NC(=O)[C@H](CCCN)NC(=O)c2cccc(C(F)(F)F)c2)[C@@H](C)O)CCNC(=O)[C@H]([C@@H](C)O)NC(=O)[C@H](CCN)NC(=O)[C@H](CCN)NC1=O [Compound 141] ({Benzoyl(3-CF3)}-[Orn]T[Dap][Dab][Dab][dL][Abu][Dab][Dab]T; lactam 4-C)	–	–	–	–	–	–	–	–	–	4 (≈ 3.41 µM)	16 (≈ 13.6 µM)	4 (≈ 3.41 µM)	2 (≈ 1.7 µM)	1 (≈ 0.852 µM)	4 (≈ 3.41 µM)	1 (≈ 0.852 µM)	1 (≈ 0.852 µM)	2 (≈ 1.7 µM)	–	–	–
CC[C@@H]1NC(=O)[C@@H](CC(C)C)NC(=O)[C@H](CCN)NC(=O)[C@@H](NC(=O)[C@H](CN)NC(=O)[C@@H](NC(=O)[C@H](CCN)NC(=O)CCc2ccccc2)[C@@H](C)O)CCNC(=O)[C@H]([C@@H](C)O)NC(=O)[C@H](CCN)NC(=O)[C@H](CCN)NC1=O [Compound 145] (Hydrocinnamoyl-[Dab]T[Dap][Dab][Dab][dL][Abu][Dab][Dab]T; lactam 4-C)	–	–	–	–	–	–	–	–	–	–	–	–	–	–	–	–	–	–	0.5	1	Minimum inhibitory concentration (MIC), Ab FADDI-AB034 [1, 6]: 0.5 µg/mL; Minimum inhibitory concentration (MIC), Ec FADDI-EC001 [2, 7]: 0.5 µg/mL; Minimum inhibitory concentration (MIC), Ec FADDI-EC003 [2, 8]: <0.125 µg/mL; Minimum inhibitory concentration (MIC), Ec FADDI-EC006 [2, 9]: <0.125 µg/mL; Minimum inhibitory concentration (MIC), Pa ATCC 27853 [3, 10]: 0.5 µg/mL; Minimum inhibitory concentration (MIC), Pa FADDI-PA022 [3, 11]: 0.5 µg/mL; Minimum inhibitory concentration (MIC), Pa FADDI-PA025 [3, 12]: 1 µg/mL
CC[C@@H]1NC(=O)[C@@H](CC(C)C)NC(=O)[C@H](CCN)NC(=O)[C@@H](NC(=O)[C@H](CCCN)NC(=O)[C@@H](NC(=O)[C@H](CCN)NC(=O)c2ccc(Cl)cc2Cl)[C@@H](C)O)CCNC(=O)[C@H]([C@@H](C)O)NC(=O)[C@H](CCN)NC(=O)[C@H](CCN)NC1=O [Compound 147] (X3-[Dab]T[Orn][Dab][Dab][dL][Abu][Dab][Dab]T; lactam 4-C)	–	–	–	–	–	–	–	–	–	–	–	–	–	–	–	–	–	–	4	4	Minimum inhibitory concentration (MIC), Ab FADDI-AB034 [1, 6]: 2 µg/mL; Minimum inhibitory concentration (MIC), Ec FADDI-EC001 [2, 7]: <0.125 µg/mL; Minimum inhibitory concentration (MIC), Ec FADDI-EC003 [2, 8]: 1 µg/mL; Minimum inhibitory concentration (MIC), Ec FADDI-EC006 [2, 9]: 1 µg/mL; Minimum inhibitory concentration (MIC), Pa ATCC 27853 [3, 10]: 1 µg/mL; Minimum inhibitory concentration (MIC), Pa FADDI-PA022 [3, 11]: 1 µg/mL; Minimum inhibitory concentration (MIC), Pa FADDI-PA025 [3, 12]: >32 µg/mL
